Test results published in ChEMBL document CHEMBL1201862, “PubChem BioAssay data set” (2004).
Calls of active or inactive are those of the source.

Legend:
[1] = target: G-protein coupled receptor 55 (Homo sapiens, UniProt Q9Y2T6); experiment: inhibition of LPI-stimulated GPR55 beta-arrestin translocation – imaging, U2OS, beta-arrestin-GFP, LPI agonist, primary screen (AID 2013); type: functional;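 also: antagonist potency measured as reduced agonist-driven arrestin aggregation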
[2] = target: T1, Zinc finger protein mex-5 (Caenorhabditis elegans, UniProt Q9XUB2); experiment: potency of MEX-5 RNA-binding blockers – biochemical, C. elegans, fluorescence polarization, dose response (AID 1960)
T1 sequence (Q9XUB2 whole entry): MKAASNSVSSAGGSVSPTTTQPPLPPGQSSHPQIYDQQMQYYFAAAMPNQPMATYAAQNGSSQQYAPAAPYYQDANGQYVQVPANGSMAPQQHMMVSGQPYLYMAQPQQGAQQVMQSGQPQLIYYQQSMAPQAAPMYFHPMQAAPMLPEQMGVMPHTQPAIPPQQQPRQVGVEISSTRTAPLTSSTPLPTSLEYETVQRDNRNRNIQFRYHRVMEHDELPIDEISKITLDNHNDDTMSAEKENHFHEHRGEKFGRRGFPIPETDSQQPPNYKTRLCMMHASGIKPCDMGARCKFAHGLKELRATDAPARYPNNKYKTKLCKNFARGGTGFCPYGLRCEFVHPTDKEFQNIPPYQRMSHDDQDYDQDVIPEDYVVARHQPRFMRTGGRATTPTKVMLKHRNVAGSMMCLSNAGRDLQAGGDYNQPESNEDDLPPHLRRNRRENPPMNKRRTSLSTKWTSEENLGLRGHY

[3] = target: T2, Sphingosine 1-phosphate receptor 4 (Homo sapiens, UniProt O95977); experiment: Fluorescence dose response cell-based high throughput screening assay for antagonists of the Sphingosine 1-Phosphate Receptor 4 (S1P4). [Related pubchem assays: 1524 (Confirmation in triplicates.), 1510 (Primary screen.)]; type: functional
T2 sequence (O95977 whole entry): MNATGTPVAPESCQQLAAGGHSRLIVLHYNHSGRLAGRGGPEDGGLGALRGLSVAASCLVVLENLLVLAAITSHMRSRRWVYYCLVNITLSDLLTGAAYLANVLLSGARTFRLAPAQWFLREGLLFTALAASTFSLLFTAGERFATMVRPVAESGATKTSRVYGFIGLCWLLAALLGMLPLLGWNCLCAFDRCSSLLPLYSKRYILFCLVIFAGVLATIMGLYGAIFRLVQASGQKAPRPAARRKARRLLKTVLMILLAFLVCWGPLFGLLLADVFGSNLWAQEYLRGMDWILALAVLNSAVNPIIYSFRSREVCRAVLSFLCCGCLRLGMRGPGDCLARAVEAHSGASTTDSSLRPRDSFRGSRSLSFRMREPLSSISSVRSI

Caspase-7 = Caspase-7 (Homo sapiens, UniProt P55210); experiment: caspase-7 enzyme inhibition, selectivity check – biochemical, DEVD-R110 fluorescence, cherry-pick, selectivity assay for caspase-6 inhibitor project, dose response (AID 743295); type: functional
Sequence of Caspase-7 (P55210 24-198 limits assumed): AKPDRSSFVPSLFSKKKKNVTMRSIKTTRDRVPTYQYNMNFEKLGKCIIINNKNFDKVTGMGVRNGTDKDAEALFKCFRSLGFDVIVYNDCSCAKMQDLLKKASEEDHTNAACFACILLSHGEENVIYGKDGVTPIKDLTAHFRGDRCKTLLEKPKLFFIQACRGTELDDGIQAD
Sequence of Caspase-7 (P55210 207-303 limits assumed): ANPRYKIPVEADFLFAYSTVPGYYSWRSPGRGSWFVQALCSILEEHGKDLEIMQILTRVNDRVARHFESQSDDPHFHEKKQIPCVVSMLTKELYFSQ

Caspase-6 = target: T3, Caspase-6 (Homo sapiens, UniProt P55212); experiment: inhibition of CASP6 peptide cleavage – biochemical, VEID-R110 fluorescence, cherry-pick, dose response (AID 720632)
T3 sequence (P55212 whole entry): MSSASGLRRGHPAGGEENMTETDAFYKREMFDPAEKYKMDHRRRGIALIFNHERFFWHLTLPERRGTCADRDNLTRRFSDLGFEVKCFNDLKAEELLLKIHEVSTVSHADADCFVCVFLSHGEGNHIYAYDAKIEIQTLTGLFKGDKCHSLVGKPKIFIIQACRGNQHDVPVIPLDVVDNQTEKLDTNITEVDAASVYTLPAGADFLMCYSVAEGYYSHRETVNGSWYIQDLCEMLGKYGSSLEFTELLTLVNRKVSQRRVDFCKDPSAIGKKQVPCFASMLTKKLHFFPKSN

[4] = target: T4, Heat shock factor protein 1 (Mus musculus, UniProt P38532); experiment: enhancement of HSF1-driven luciferase signal – cell-based, NIH3T3, luminescence, dose retest, confirmation (AID 435004); type: functional;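 also: stress induced by proteasome inhibitor MG132 added 30 min after compound; luciferase reporter driven by HSF1 response element in NIH3T3 cells; actives raise luminescence as potentiators of the MG132 stress response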
T4 sequence (P38532 whole entry): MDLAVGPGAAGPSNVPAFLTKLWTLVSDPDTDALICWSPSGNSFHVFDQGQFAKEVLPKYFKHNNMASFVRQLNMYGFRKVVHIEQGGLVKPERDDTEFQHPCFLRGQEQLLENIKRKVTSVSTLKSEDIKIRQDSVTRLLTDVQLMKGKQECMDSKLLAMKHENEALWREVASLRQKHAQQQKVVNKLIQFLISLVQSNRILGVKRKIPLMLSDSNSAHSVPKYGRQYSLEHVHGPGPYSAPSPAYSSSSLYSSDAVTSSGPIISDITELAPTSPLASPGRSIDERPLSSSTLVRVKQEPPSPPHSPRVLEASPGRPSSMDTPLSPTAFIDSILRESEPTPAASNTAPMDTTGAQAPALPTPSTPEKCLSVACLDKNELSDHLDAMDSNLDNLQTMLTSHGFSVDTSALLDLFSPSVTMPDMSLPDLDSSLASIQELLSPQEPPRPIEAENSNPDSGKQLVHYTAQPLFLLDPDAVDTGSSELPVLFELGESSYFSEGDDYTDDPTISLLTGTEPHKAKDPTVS

[5] = target: T5, Mannose-6-phosphate isomerase (Homo sapiens, UniProt P34949); experiment: MPI inhibition at elevated mannose 6-phosphate – biochemical, fluorescence intensity, high mannose 6-phosphate, primary screen (AID 1220)
T5 sequence (P34949 whole entry): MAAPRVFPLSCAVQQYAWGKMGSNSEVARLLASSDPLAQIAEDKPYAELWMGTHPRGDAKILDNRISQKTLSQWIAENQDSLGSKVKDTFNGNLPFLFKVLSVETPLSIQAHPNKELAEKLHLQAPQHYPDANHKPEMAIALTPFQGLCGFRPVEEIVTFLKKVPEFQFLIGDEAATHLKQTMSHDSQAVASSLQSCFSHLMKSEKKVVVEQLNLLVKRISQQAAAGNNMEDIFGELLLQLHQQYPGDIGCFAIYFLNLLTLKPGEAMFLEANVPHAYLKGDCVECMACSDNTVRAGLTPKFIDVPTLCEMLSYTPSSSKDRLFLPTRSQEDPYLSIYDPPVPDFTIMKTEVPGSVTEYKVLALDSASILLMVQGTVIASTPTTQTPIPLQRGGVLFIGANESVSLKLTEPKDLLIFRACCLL

[6] = target: ATP-dependent molecular chaperone HSP82 (Candida albicans (strain WO-1) (Yeast), UniProt C4YTQ8); experiment: steroid-induced GRE reporter decrease in yeast – S. cerevisiae, luminescence, Hsp90 inhibitor project, dose response (AID 2400); type: functional, cell-based;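 also: beta-galactosidase luminescence from glucocorticoid response element reporter as proxy for Hsp90 function; inhibitor potency where signal loss means Hsp90 inhibition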
Sequence of ATP-dependent molecular chaperone HSP82 (C4YTQ8 whole entry): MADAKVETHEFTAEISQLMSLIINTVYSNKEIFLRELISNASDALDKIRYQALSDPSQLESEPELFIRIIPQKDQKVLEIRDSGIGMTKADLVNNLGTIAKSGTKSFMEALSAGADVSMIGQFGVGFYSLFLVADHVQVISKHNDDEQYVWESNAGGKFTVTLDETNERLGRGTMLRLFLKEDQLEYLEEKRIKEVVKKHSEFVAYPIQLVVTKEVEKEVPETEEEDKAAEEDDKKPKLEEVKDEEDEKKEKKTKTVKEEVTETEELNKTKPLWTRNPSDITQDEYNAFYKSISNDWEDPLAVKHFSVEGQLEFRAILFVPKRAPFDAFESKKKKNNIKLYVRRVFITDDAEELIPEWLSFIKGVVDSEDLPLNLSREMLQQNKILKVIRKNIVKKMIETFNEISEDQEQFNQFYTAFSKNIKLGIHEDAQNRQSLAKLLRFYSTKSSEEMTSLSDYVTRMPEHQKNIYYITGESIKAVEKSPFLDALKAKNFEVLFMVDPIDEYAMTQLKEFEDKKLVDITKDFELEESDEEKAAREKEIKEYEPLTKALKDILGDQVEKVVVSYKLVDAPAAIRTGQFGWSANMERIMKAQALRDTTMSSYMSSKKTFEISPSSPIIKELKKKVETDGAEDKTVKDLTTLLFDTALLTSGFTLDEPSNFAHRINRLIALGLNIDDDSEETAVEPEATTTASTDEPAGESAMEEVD

[7] = reduction of Shn3 3'UTR-driven luciferase in osteoblasts – cell-based, Clone20 osteoblasts, firefly luciferase, cherry-picked, dose response (AID 624132); type: functional;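 also: firefly luciferase luminescence from reporter carrying the Shn3 3'UTR in osteoblasts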
HEK293 = experiment: HEK293T cell viability loss, resazurin readout – resazurin fluorescence, cytotoxicity control for NF-kB activator project, SAR follow-up (AID 493251); type: functional, cell-based; conditions: Homo sapiens
[8] = HEK-293T viability loss after treatment – luminescence, T-cell screen hits, cytotoxicity control for TCR NF-kB inhibitor project, dose response (AID 489026); type: functional, cell-based;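 also: cells exposed to compound about 14 hours before the viability readout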
[9] = non-specific 3'UTR reporter inhibition in Clone20-Shn3RL – cell-based, Renilla luciferase, cherry-picked, counter-screen for Shn3 inhibitor project, dose response (AID 624133); type: functional
cells = type: functional
BJ = experiment: BJ-TERT-LT-ST fibroblast viability loss – cell-based, RAS-independent, luminescence, dose response (AID 1935); type: functional; conditions: Homo sapiens;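 also: BJ fibroblasts immortalized with TERT plus LT and ST oncogenes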

Sequence of G-protein coupled receptor 55 (Q9Y2T6 whole entry): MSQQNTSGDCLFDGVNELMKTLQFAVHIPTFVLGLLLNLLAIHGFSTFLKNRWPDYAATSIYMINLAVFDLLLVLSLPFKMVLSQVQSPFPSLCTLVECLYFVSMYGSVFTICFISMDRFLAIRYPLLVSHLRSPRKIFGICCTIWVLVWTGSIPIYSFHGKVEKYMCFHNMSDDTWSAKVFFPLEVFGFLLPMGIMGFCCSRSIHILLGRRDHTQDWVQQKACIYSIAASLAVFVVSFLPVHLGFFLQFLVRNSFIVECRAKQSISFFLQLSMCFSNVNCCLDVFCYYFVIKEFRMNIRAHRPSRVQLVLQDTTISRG

Cn1nc(-c2ccc(Cl)cc2)nc2c(=O)n(C)c(=O)nc1-2
IC50 [1]: 7.35 µM (active) | EC50 [2]: 16.8 µM (active) | IC50 [3]: 0.396 µM (active)

NS(=O)(=O)c1ccc(NC(=O)COC(=O)c2ccc([N+](=O)[O-])s2)cc1
AC50 (Caspase-7): > 22 µM (inactive) | AC50 (Caspase-6): 3.33 µM (active)

CCCCNc1cc(NC(C)=O)cc2cc(OC)c(OC)cc12
EC50 [4]: > 260 µM (inactive) | IC50 [5]: > 50 µM (not active)

COc1ccc(C(NC(=O)C(C)C)c2ccc3cccnc3c2O)cc1 (centres undefined)
EC50 [6]: 52.4 µM (active) | AC50 [7]: 1.35 µM (active) | IC50 (HEK293): 41.3 µM (inactive) | IC50 [8]: > 80 µM (inactive) | AC50 [9]: 2.27 µM (active)

O=C(Cc1ccc([N+](=O)[O-])cc1)N/N=C/c1ccc([N+](=O)[O-])o1
IC50 (cells): 13.2 µM (active) | EC50 (BJ): 18.3 µM (active)
